From patent US4684664A, “Derivatives of β-(4-isocyano-1,2,3,4-diepoxycyclopentyl) acrylic acid” (Kureha Kagaku Kogyo Kabushiki Kaisha, priority 1984, dated 1987)
Converted amounts (≈) assume the structure as drawn.

Key:
Assay type in all cases: cell-based
[1] = system: Pseudomonas aeruginosa IFO 3445; test: Antibacterial activity, agar-dilution MIC, organism No. 15; conditions: Pseudomonas aeruginosa, IFO3445; Organism No. 15, bouillon-agar; read-out: Minimum Inhibitory Concentration
Source text: (§1) Agar-dilution method was used for determination of the antibacterial activity and antifungal activity while using bouillon-agar culture medium, and the minimum inhibitory concentration of the specimen was expressed by μg/ml of the culture medium.

[2] = system: Mycoplasma pneumoniae IID817; test: Antimycoplasmal activity, MIC by phenol red colour change, organism No. 28; conditions: Mycoplasma, IID817; Organism No. 28, PPLO broth + 1% glucose, 37° C.; read-out: Minimum Inhibitory Concentration (MIC)
Description: Mycoplasma pneumoniae IID817 was used as the test microorganism in a culture medium prepared by adding 1% of glucose to "PPLO broth (manufactured by Difco Co.) liquid culture medium" at 37° C. with phenol red as an indicator, thereby culturing the test microorganism.

[3] = system: Pseudomonas aeruginosa NCTC 10490; test: Antibacterial activity, agar-dilution MIC, organism No. 16; conditions: Pseudomonas aeruginosa, NCTC10490; Organism No. 16, bouillon-agar; read-out: Minimum Inhibitory Concentration
Source text: as §1

[4] = system: Streptococcus pyogenes IFO 3340; test: Antibacterial activity, agar-dilution MIC, organism No. 26; conditions: Streptococcus pyogenes, IFO3340; Organism No. 26, bouillon-agar; read-out: Minimum Inhibitory Concentration
Source text: as §1

[5] = system: Klebsiella pneumoniae PCI-602; test: Antibacterial activity, agar-dilution MIC, organism No. 7; conditions: Klebsiella pneumoniae, PCI602; Organism No. 7, bouillon-agar; read-out: Minimum Inhibitory Concentration
Source text: as §1

[6] = system: Streptococcus pyogenes Cook; test: Antibacterial activity, agar-dilution MIC, organism No. 4; conditions: Streptococcus pyogenes; Organism No. 4, bouillon-agar; read-out: Minimum Inhibitory Concentration
Source text: as §1

[7] = system: Staphylococcus aureus MS 353; test: Antibacterial activity, agar-dilution MIC, organism No. 3; conditions: Staphylococcus aureus, MS353; Organism No. 3, bouillon-agar; read-out: Minimum Inhibitory Concentration
Source text: as §1

[8] = system: Escherichia coli NIHJ-JC-2; test: Antibacterial activity, agar-dilution MIC, organism No. 5; conditions: Escherichia coli, NIHJJC2; Organism No. 5, bouillon-agar; read-out: Minimum Inhibitory Concentration
Source text: as §1

[9] = system: Staphylococcus aureus FDA 209PJc-1; test: Antibacterial activity, agar-dilution MIC, organism No. 1; conditions: Staphylococcus aureus, FDA209PJC1; Organism No. 1, bouillon-agar; read-out: Minimum Inhibitory Concentration
Source text: as §1

Proteus vulgaris OX-19 = test: Antibacterial activity, agar-dilution MIC, organism No. 20; conditions: Proteus vulgaris, OX19; Organism No. 20, bouillon-agar; read-out: Minimum Inhibitory Concentration
Source text: as §1

[10] = system: Proteus rettgeri IFO 3850; test: Antibacterial activity, agar-dilution MIC, organism No. 22; conditions: Providencia rettgeri, IFO3850; Organism No. 22, bouillon-agar; read-out: Minimum Inhibitory Concentration
Source text: as §1

[11] = system: Staphylococcus aureus Terajima; test: Antibacterial activity, agar-dilution MIC, organism No. 2; conditions: Staphylococcus aureus; Organism No. 2, bouillon-agar; read-out: Minimum Inhibitory Concentration
Source text: as §1

[12] = system: Streptococcus faecium IFO 3826; test: Antibacterial activity, agar-dilution MIC, organism No. 27; conditions: Enterococcus faecium, IFO3826; Organism No. 27, bouillon-agar; read-out: Minimum Inhibitory Concentration
Source text: as §1

[13] = system: Salmonella paratyphi-A 1015; test: Antibacterial activity, agar-dilution MIC, organism No. 10; conditions: Salmonella enterica, PARATYPHI, read-out: Minimum Inhibitory Concentration
Source text: as §1

[14] = system: Enterobacter aerogenes ATCC 13048; test: Antibacterial activity, agar-dilution MIC, organism No. 23; conditions: Klebsiella aerogenes, ATCC13048; Organism No. 23, bouillon-agar; read-out: Minimum Inhibitory Concentration
Source text: as §1

[15] = system: Salmonella enteritidis G 14; test: Antibacterial activity, agar-dilution MIC, organism No. 12; conditions: Salmonella enterica, ENTERITIDIS; Organism No. 12, bouillon-agar; read-out: Minimum Inhibitory Concentration
Source text: as §1

[16] = system: Micrococcus luteus ATCC 9341; test: Antibacterial activity, agar-dilution MIC, organism No. 25; conditions: Micrococcus luteus, ATCC9341; Organism No. 25, bouillon-agar; read-out: Minimum Inhibitory Concentration
Source text: as §1

Proteus vulgaris HX-19 = test: Antibacterial activity, agar-dilution MIC, organism No. 21; conditions: Proteus vulgaris, HX19; Organism No. 21, bouillon-agar; read-out: Minimum Inhibitory Concentration
Source text: as §1

[17] = system: Candida albicans IAM 4905; test: Antifungal activity, agar-dilution MIC, organism No. 29; conditions: Candida albicans, IAM4905; Organism No. 29, bouillon-agar; read-out: Minimum Inhibitory Concentration
Source text: as §1

[18] = system: Pseudomonas aeruginosa PAO 1; test: Antibacterial activity, agar-dilution MIC, organism No. 17; conditions: Pseudomonas aeruginosa, PAO1; Organism No. 17, bouillon-agar; read-out: Minimum Inhibitory Concentration
Source text: as §1

[19] = system: Proteus mirabilis IFO 3849; test: Antibacterial activity, agar-dilution MIC, organism No. 19; conditions: Proteus mirabilis, IFO3849; Organism No. 19, bouillon-agar; read-out: Minimum Inhibitory Concentration
Source text: as §1

[20] = system: Salmonella typhimurium IID 971; test: Antibacterial activity, agar-dilution MIC, organism No. 8; conditions: Salmonella enterica; Organism No. 8, bouillon-agar; read-out: Minimum Inhibitory Concentration
Source text: as §1

[21] = system: Escherichia coli K12 C600 IAM 1264; test: Antibacterial activity, agar-dilution MIC, organism No. 6; conditions: Escherichia coli, IAM1264; Organism No. 6, bouillon-agar; read-out: Minimum Inhibitory Concentration
Source text: as §1

Salmonella typhi 901 = test: Antibacterial activity, agar-dilution MIC, organism No. 9; conditions: Salmonella enterica, TYPHI, read-out: Minimum Inhibitory Concentration
Source text: as §1

Enterobacter cloacae 963 = test: Antibacterial activity, agar-dilution MIC, organism No. 24; conditions: Enterobacter cloacae, 963; Organism No. 24, bouillon-agar; read-out: Minimum Inhibitory Concentration
Source text: as §1

[22] = system: Proteus morganii IFO 3848; test: Antibacterial activity, agar-dilution MIC, organism No. 18; conditions: Morganella morganii, IFO3848; Organism No. 18, bouillon-agar; read-out: Minimum Inhibitory Concentration
Source text: as §1

[23] = system: Salmonella shottmuelleri 8006; test: Antibacterial activity, agar-dilution MIC, organism No. 11; conditions: Salmonella, 8006; Organism No. 11, bouillon-agar; read-out: Minimum Inhibitory Concentration
Source text: as §1

[24] = system: Aspergillus niger IFO 6342; test: Antifungal activity, agar-dilution MIC, organism No. 30; conditions: Aspergillus niger, IFO6342; Organism No. 30, bouillon-agar; read-out: Minimum Inhibitory Concentration
Source text: as §1

[25] = system: Bacillus subtilis ATCC 6633; test: Antibacterial activity, agar-dilution MIC, organism No. 14; conditions: Bacillus subtilis, ATCC6633; Organism No. 14, bouillon-agar; read-out: Minimum Inhibitory Concentration
Source text: as §1

Compound	MIC [1] [µg/mL]	MIC [3] [µg/mL]	MIC [4] [µg/mL]	MIC [5] [µg/mL]	MIC [6] [µg/mL]	MIC [7] [µg/mL]	MIC [8] [µg/mL]	MIC [9] [µg/mL]	MIC (Proteus vulgaris OX-19) [µg/mL]	MIC [10] [µg/mL]	MIC [11] [µg/mL]	MIC [13] [µg/mL]	MIC [15] [µg/mL]	MIC (Proteus vulgaris HX-19) [µg/mL]	MIC [17] [µg/mL]	MIC [18] [µg/mL]	MIC [19] [µg/mL]	MIC [20] [µg/mL]	MIC [21] [µg/mL]	MIC (Salmonella typhi 901) [µg/mL]	other results
[C-]#[N+]C12CC3(/C=C/C(=O)N[C@@H](CC(=O)OC)C(=O)OC)OC3C1O2 (stereo partly drawn) [Compound No. 27]	> 200	> 200	50 (≈ 149 µM)	25 (≈ 74.3 µM)	50 (≈ 149 µM)	25 (≈ 74.3 µM)	100 (≈ 297 µM)	25 (≈ 74.3 µM)	25 (≈ 74.3 µM)	> 200	100 (≈ 297 µM)	25 (≈ 74.3 µM)	25 (≈ 74.3 µM)	12.5 (≈ 37.2 µM)	100 (≈ 297 µM)	> 200	> 200	100 (≈ 297 µM)	50 (≈ 149 µM)	25 (≈ 74.3 µM)	MIC [2]: > 100 µg/mL; MIC [12]: > 200 µg/mL; MIC [14]: > 200 µg/mL; MIC [16]: 12.5 µg/mL (≈ 37.2 µM); MIC (Enterobacter cloacae 963): > 200 µg/mL; MIC [22]: 25 µg/mL (≈ 74.3 µM); MIC [23]: 25 µg/mL (≈ 74.3 µM); MIC [24]: > 100 µg/mL; MIC [25]: 100 µg/mL (≈ 297 µM)
[C-]#[N+]C12CC3(/C=C/C(=O)N4CCN(C)CC4)OC3C1O2 (stereo not drawn) [compound 23]	> 200	> 200	50 (≈ 182 µM)	200 (≈ 726 µM)	50 (≈ 182 µM)	200 (≈ 726 µM)	50 (≈ 182 µM)	200 (≈ 726 µM)	25 (≈ 90.8 µM)	> 200	> 200	25 (≈ 90.8 µM)	25 (≈ 90.8 µM)	25 (≈ 90.8 µM)	1.56 (≈ 5.67 µM)	> 200	> 200	50 (≈ 182 µM)	50 (≈ 182 µM)	12.5 (≈ 45.4 µM)	MIC [12]: 100 µg/mL (≈ 363 µM); MIC [14]: > 200 µg/mL; MIC [16]: < 0.05 µg/mL; MIC (Enterobacter cloacae 963): 200 µg/mL (≈ 726 µM); MIC [22]: 12.5 µg/mL (≈ 45.4 µM); MIC [23]: 50 µg/mL (≈ 182 µM); MIC [24]: 3.13 µg/mL (≈ 11.4 µM); MIC [25]: 200 µg/mL (≈ 726 µM)
[C-]#[N+]C12CC3(/C=C/C(=O)N4CCC[C@H]4C(=O)OCc4ccccc4)OC3C1O2 (stereo partly drawn) [compound 32]	> 200	> 200	200 (≈ 526 µM)	> 200	> 200	200 (≈ 526 µM)	> 200	200 (≈ 526 µM)	> 200	> 200	200 (≈ 526 µM)	> 200	> 200	> 200	> 100	> 200	> 200	> 200	> 200	> 200	MIC [2]: > 100 µg/mL; MIC [12]: 200 µg/mL (≈ 526 µM); MIC [16]: 1.56 µg/mL (≈ 4.1 µM); MIC (Enterobacter cloacae 963): > 200 µg/mL; MIC [22]: > 200 µg/mL; MIC [23]: > 200 µg/mL; MIC [24]: > 100 µg/mL; MIC [25]: > 200 µg/mL
[C-]#[N+]C12CC3(/C=C/C(=O)NC4C(=O)N5C(C(=O)OCC(=O)c6ccc(Br)cc6)=C(C)CSC45)OC3C1O2 (stereo not drawn) [compound 34]	> 100	> 100	> 100	> 100	> 100	> 100	> 100	> 100	> 100	> 100	> 100	> 100	> 100	100 (≈ 171 µM)	> 100	> 100	> 100	> 100	> 100	> 100	MIC [2]: > 100 µg/mL; MIC [12]: > 100 µg/mL; MIC [14]: > 100 µg/mL; MIC (Enterobacter cloacae 963): > 100 µg/mL; MIC [22]: > 100 µg/mL; MIC [23]: > 100 µg/mL; MIC [24]: > 100 µg/mL; MIC [25]: > 100 µg/mL
[C-]#[N+]C12CC3(/C=C/C(=O)Nc4ccccc4)OC3C1O2 (stereo not drawn) [Compound No. 36]	> 200	> 200	0.2 (≈ 0.746 µM)	0.39 (≈ 1.45 µM)	1.56 (≈ 5.81 µM)	0.39 (≈ 1.45 µM)	12.5 (≈ 46.6 µM)	0.39 (≈ 1.45 µM)	0.78 (≈ 2.91 µM)	3.13 (≈ 11.7 µM)	0.78 (≈ 2.91 µM)	0.39 (≈ 1.45 µM)	0.78 (≈ 2.91 µM)	< 0.05	0.39 (≈ 1.45 µM)	> 200	12.5 (≈ 46.6 µM)	12.5 (≈ 46.6 µM)	6.25 (≈ 23.3 µM)	3.13 (≈ 11.7 µM)	MIC [2]: < 0.2 µg/mL; MIC [14]: > 200 µg/mL; MIC [16]: < 0.05 µg/mL; MIC (Enterobacter cloacae 963): 200 µg/mL (≈ 746 µM); MIC [22]: 0.39 µg/mL (≈ 1.45 µM); MIC [23]: < 0.05 µg/mL; MIC [24]: 1.56 µg/mL (≈ 5.81 µM); MIC [25]: 12.5 µg/mL (≈ 46.6 µM)
